{"source": "patent US20160015701A1", "about": "“Methods of Treating Acute Kidney Injury” (ABBIVE INC., priority 2013, published 2016)", "key": {"[1]": {"tested_on": "unilateral ischemic renal injury", "assay": "unilateral ischemia/reperfusion (I/R) injury protocol, renal weight two weeks post ischemia", "type": "in vivo, CD-1 mice", "method": "(§1) All experiments were performed using male 30-45 gram CD-1 mice, obtained from Charles River Laboratories, Wilmington, Mass. They were housed under routine vivarium conditions with free food and water access. Surgeries were conducted under deep pentobarbital anesthesia (40-50 mg/Kg IP). Post surgical analgesia was provided with buprenorphine (0.1 mg/Kg IP) at the completion of surgery. All procedures were approved by the institution's IACUC, in accordance with NIH guidelines.\nIn this example, ET-1 and ETA/ETB receptor expression were quantified following ischemic renal injury, and ET-1 gene chromatin remodeling and RNA polymerase II (Pol II) binding were evaluated. Ten mice were subjected to a midline laparotomy, and the left renal pedicles were exposed and occluded ×30 min using atraumatic microvascular clamps. Uniform ischemia was confirmed by the development of total kidney cyanosis (indicating hypoxia). Body temperature was monitored with an intra-abdominal thermometer and maintained at 37° C. with an external heating source. At the completion of the ischemic period, the vascular clamp was removed, and uniform reperfusion was confirmed by loss of kidney cyanosis. The abdominal incision was then sutured in two layers using 3-0 chromic suture. The mice were then allowed to recover from anesthesia. Ten additional mice, subjected to the same surgical procedure, but not to renal pedicle occlusion, served as sham-operated controls.\nThis example studied whether atrasentan treatment, during pre- and post-ischemic period, confers renal protection. Eighteen mice were subjected to a unilateral ischemia/reperfusion (I/R) protocol as described in Example 1. […] Atrasentan was administered in the drinking water (25 μg/mL; designed to equate with a dose of ˜5 mg/Kg/day). Atrasentan dosing was started one day before surgery, and continued throughout the remainder of the experiment. Fresh atrasentan was provided ˜2-3× per week for two weeks. The remaining nine mice received only free food and water access, serving as controls.\nThe degree of post-ischemic loss of renal mass was assessed by comparing the weights of kidneys from sham operated mice, control post-ischemic mice, and post ischemic mice that had received atrasentan treatment. Finally, frontal sections of post-ischemic kidneys were taken from five control mice and five atrasentan-treated mice, fixed in 10% buffered formalin, and used for subsequent histochemical analyses.\nThis example studies whether atrasentan treatment, restricted to the post-ischemic period, confers renal protection. This experiment was designed to help resolve the issue of when atrasentan was inducing its protective effect. To this end, the same protocol described in Example 2 was repeated, but atrasentan administration was commenced 24 hours after the induction of ischemic damage). At the end of two weeks, the mice were re-anesthetized and the left and right kidneys were weighed. The degree of post ischemic renal weight reduction (the primary endpoint of the above described experiment) was determined. […]\nThis example studies the potential effects of atrasentan on renal growth independent of ischemic injury. To ascertain whether atrasentan treatment might impact renal growth or size independent of an effect on renal ischemia/post ischemic injury, renal weights of the contralateral (non ischemic) kidneys from the Example 2 were assessed and compared to ischemic kidneys with and without treatment with atrasentan. […]"}, "ETB receptor": {"target": "ETB receptor", "conditions": "read-out: K1 of ET-1/ETB binding affinity; cited from earlier work"}, "post ischemic kidneys": {"tested_on": "post ischemic kidneys", "assay": "renal histology (H and E injury score, KI-67 staining) of two week post ischemic kidneys", "type": "in vivo, CD-1 mice", "conditions": "pre+post atrasentan", "method": "Calculations and Statistics: All values are presented as means±1 SEM. Statistical comparisons were performed by unpaired Student's t test. The mRNA data were generated by competitive RT-PCR, with the results for any given message being expressed as a ratio to the simultaneously determined GAPDH product, used as a housekeeping gene. ChIP data, generated with real time PCR (qPCR) are presented as ng/mg total applied chromatin. The severity of histologic injury, as determined by studying H and E stained kidney sections, was assessed by blinded scoring of slides of 2 week post ischemic kidneys from 5 Atrasentan treated (24 hrs pre-ischemia, and 2 weeks post-ischemia) mice, and from 5 non Atrasentan treated post ischemic controls. […]\nThis example examined renal histology on kidneys from five control mice and five atrasentan-treated mice from Example 2. […] In addition, renal tubular cell proliferation was assessed by immunohistochemical staining for KI-67, a nuclear protein marker of all active cell cycle phases (G1, S, G2, mitosis; but not Go). (Scholzen T, et al., The Ki-67 protein: from the known and the unknown. J Cell Physiol. 182: 311-322, 2000.) The percent of KI-67 cells was determined on whole kidney sections, captured with ScanScope AT (Aperio, Vista, Calif.), and then analyzed with Nuclear Algorithm Spectrum software (version 11.1.1.764; Aperio)."}, "[2]": {"tested_on": "bilateral ischemic renal injury", "assay": "bilateral ischemic renal injury, severity at 24 hours post ischemia", "type": "in vivo, CD-1 mice", "conditions": "22.5 min or 25 min bilateral ischemia", "method": "as §1\nThis example studies whether atrasentan pre-treatment protects against the acute ischemic injury phase. More particularly, the possibility that atrasentan might mitigate the acute injury phase, and thus, cause a subsequent preservation of renal mass, was explored by subjecting mice to either 22.5 minutes or 25 minutes of bilateral ischemic renal injury in the presence or absence of atrasentan pre-treatment for 24 hours before and for 24 hours after the induction of renal ischemia. […]\nThe severity of injury was assessed at 24 hours post ischemia by BUN and plasma creatinine concentrations. […] As a second marker of renal injury, renal cortical NGAL mRNA levels were also assessed. Measurement of NGAL mRNA represents a more sensitive biomarker of kidney injury than BUN and Plasma Creatinine measured in FIG. 8 and was measured to investigate the effect of atrasentan on the induction phase of ischemic injury."}, "[3]": {"tested_on": "proximal tubule (HK-2) cells", "experimental": "After eighteen hours of incubation, lethal cell injury was assessed by % LDH release."}}, "note": "Read-outs that look alike come from different tables or passages of the source."}
{"smiles": "CCCC[C@@H](NC(=O)[C@@H](Cc1cn(C(=O)OC)c2ccccc12)NC(=O)[C@H](CC(C)(C)C)NC(=O)N1[C@H](C)CCC[C@@H]1C)C(=O)[O-].[Na+]", "note": "[BQ-788, N-cis-2,6-dimethylpiperidinocarbonyl-L-gamma-methylleucyl-D-1-methoxycarbonyltryptophanyl-D-norleucine]", "values": [{"measurement": "effect on renal parameters measured", "setting": "[1]; BQ-788 administered both pre- and post-ischemia", "result": "no effect on any of the renal parameters measured"}, {"measurement": "post ischemic kidney weight", "setting": "[1]; BQ-788 subcutaneously each day from 1 day before surgery, two weeks post ischemia, control ischemia 0.23 grams", "result": 0.24, "unit": "grams"}, {"measurement": "Ki", "setting": "ETB receptor", "result": 100, "unit": "nM"}]}
{"smiles": "CCCCN(CCCC)C(=O)CN1C[C@H](c2ccc3c(c2)OCO3)[C@@H](C(=O)O)[C@@H]1c1ccc(OC)cc1", "note": "[atrasentan, (2R,3R,4S)-4-(1,3-benzodioxol-5-yl)-1-[2-(dibutylamino)-2-oxoethyl]-2-(4-methoxyphenyl)pyrrolidine-3-carboxylic acid]", "values": [{"measurement": "post ischemic loss of renal mass (renal weight)", "setting": "[1]; atrasentan commenced 24 hours after induction of ischemic damage, two weeks", "result": "completely blocked this loss of renal mass"}, {"measurement": "post ischemic kidney weight (renal mass)", "setting": "[1]; atrasentan in drinking water ~5 mg/Kg/day, started one day before 30 min unilateral ischemia and continued two weeks post ischemia, vs normal kidneys", "result": "did not significantly differ from that of normal kidneys"}, {"measurement": "contralateral (non ischemic) kidney weight, hypertrophic response", "setting": "[1]; pre+post atrasentan, two weeks, drug vs. no-drug groups", "result": "no effect on this hypertrophic response"}, {"measurement": "% KI-67 nuclear positivity", "setting": "post ischemic kidneys; two week post ischemic kidney, control ischemia 11.4±0.8%, normal kidneys 2.4±0.6%", "result": "10.8±1.2", "unit": "%"}, {"measurement": "histologic injury score (semiquantitative 1+ to 4+, least to most severe)", "setting": "post ischemic kidneys; two weeks post ischemia, control ischemia 3.4±0.3, p<0.01, mean±SEM", "result": "1.7±0.4"}, {"measurement": "severity of AKI by BUN and plasma creatinine concentrations", "setting": "[2]; atrasentan 24 hours before and 24 hours after, assessed 24 hours post ischemia", "result": "failed to mitigate the severity of AKI"}, {"measurement": "renal cortical NGAL mRNA levels", "setting": "[2]; atrasentan 24 hours before and after, 24 hours post ischemia", "result": "in neither instance did atrasentan decrease these NGAL mRNA increases"}, {"measurement": "LDH release", "setting": "[3]; CAD (antimycin A/Ca ionophore/2-deoxyglucose) + 5 μg atrasentan, 18 hours, CAD alone 22.8±0.2%", "result": "23.2±0.3", "unit": "%"}, {"measurement": "LDH release", "setting": "[3]; human, 18 h, 5 μg/mL", "result": "9.0±0.1", "unit": "%"}]}
